The numbers were not newly measured in publication PMC2970513 (Chemical biology & drug design, 2009), which cites them from elsewhere.

The data set deals with μ receptor. The settings on record: compared with the N-methylated cyclic peptides of this paper.

With H-Tyr-D-Ala(NMe)-Phe-Sar-NH2, the “μ receptor binding affinity, fold lower than those of the N-methylated cyclic peptides described here” value was 30-80 fold.
